Active and inactive are the calls of the source.
Tests used:
Estrogen receptor beta [1] = biological target: T1, Estrogen receptor beta (Homo sapiens, UniProt Q92731);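 also: recombinant ER-beta bound to coactivator SRC1 peptide in presence of estradiol agonist; inhibitors block coactivator peptide binding and lower the FRET signal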
Estrogen receptor beta [2] = biological target: T1, Estrogen receptor beta; experiment: ERβ–SRC-3 coactivator interaction inhibitors, confirmation, orthogonal assay, biochemical, ELISA, streptavidin-HRP readout (AID 1060)
[3] = biological target: E3 ubiquitin-protein ligase Mdm2 (Homo sapiens, UniProt Q00987); experiment: enhancers of MDM2-luciferase reporter signal, concentration-effect titration, project on inhibitors of MDM2 ubiquitin ligase, cellular assay, luminescent readout, 384-well plate format (AID 1394); assay type: functional;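 also: MDM2 E3 inhibitors raise luminescence so EC50 is for signal enhancement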
Vero = experiment: cells; assay type: functional; conditions: Chlorocebus sabaeus
[4] = P. falciparum Dd2 growth inhibitors, dose response, SYBR Green, cherry-picked samples (AID 1159567); assay type: functional, cell-based
[5] = HepG2 cell cytotoxicity, dose response, cytotoxicity control, cherry-picked samples (AID 1159577); assay type: functional, cell-based
[6] = biological target: Mitogen-activated protein kinase 10 (Homo sapiens, UniProt P53779); experiment: Dose response biochemical screening assay for inhibitors of c-Jun N-Terminal Kinase 3 (JNK3). [Related pubchem assays: 746 ]
[7] = HeLa 2N DNA content increase, dose response, cell-based, IC50 (AID 1117349); assay type: functional
[8] = Concentration-dependent survival of SW480 colon cancer line, luminescence detection with CellTiter-Glo, half-maximal inhibitory concentration (AID 1117338); assay type: functional
[9] = RKO cell viability reduction, dose response, CellTiter-Glo luminescence (AID 1117322); assay type: functional
[10] = cytotoxicity toward HCT116 cells – cell-based, CellTiter-Glo luminescence, IC50, dose response (AID 1117332); assay type: functional; conditions: HCT-116
[11] = SNU-C1 cell viability reduction, dose response, CellTiter-Glo luminescence (AID 1117323); assay type: functional, cell-based
[12] = cytotoxicity toward Colo320 cells – cell-based, CellTiter-Glo luminescence, IC50, dose response (AID 1117334); assay type: functional; conditions: COLO 320
[13] = HeLa 4N DNA content increase, dose response, cell-based, IC50 (AID 1117351); assay type: functional
[14] = cytotoxicity toward HT-29 cells – cell-based, CellTiter-Glo luminescence, IC50, dose response (AID 1117330); assay type: functional
[15] = CellTiter-Glo luminescent dose response of DLD-1 viability loss (AID 1117352); assay type: functional
[16] = HCT116 cell viability decrease, GSK3B pretreatment – CellTiter-Glo, IC50, dose response (AID 1117339); assay type: functional; conditions: HCT-116
[17] = Luminescent dose response cell-based high throughput screening assay for inhibitors of the Janus kinase 2 mutant JAK2V617F. [Related pubchem assays: 1446 (Primary screen.), 1521 (Confirmation assay.), 1486 (Counter screen.)]; assay type: functional
[18] = Luminescence Cell-Based Dose Confirmation HTS to Identify Activators of 5'UTR Stem-Loop Driven Alpha-Synuclein mRNA Translation in H4 Neuroglioblastoma Cells. [Related pubchem assays: 1829 (Project Summary), 1814 (Primary HTS)]; assay type: functional
[19] = Luminescence Cell-Based Dose Response HTS to Identify Activators of Luciferase Translation or Activity in H4 […] Cells. [Related pubchem assays: 1829 (Project Summary), 1814 (Primary HTS)]; assay type: functional
H4 = experiment: Luminescence Cell-Based Dose Response HTS to Identify Activators of 5'UTR Stem-Loop Driven Prion Protein mRNA Translation in H4 Neuroglioblastoma Cells. [Related pubchem assays: 1829 (Project Summary), 1814 (Primary HTS)]; assay type: functional; conditions: Homo sapiens
[20] = cytotoxicity in HEK-293T cells, dose response, cytotoxicity control for TCR NF-kB inhibitor project, luminescence, T-cell screen hits (AID 489026); assay type: functional, cell-based;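 also: cells exposed to compound about 14 hours before the viability readout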
[21] = P. falciparum late gametocyte killing, dose response, luminescence (AID 1117278); assay type: functional, cell-based;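 also: gametocytes exposed to compound for 24 hours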
[22] = Jurkat T cell cytotoxicity, dose response, cytotoxicity control for P. falciparum gametocyte viability project, luminescence (AID 1117277); assay type: functional, cell-based;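 also: potency reflects loss of cellular ATP meaning fewer viable cells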
Kallikrein-7 = Kallikrein-7 (Homo sapiens, UniProt P49862); experiment: Fluorescence Intensity-based biochemical primary high throughput dose response assay to identify activators of kallikrein-7 (K7) zymogen.
Chain of Kallikrein-7 (P49862 whole entry): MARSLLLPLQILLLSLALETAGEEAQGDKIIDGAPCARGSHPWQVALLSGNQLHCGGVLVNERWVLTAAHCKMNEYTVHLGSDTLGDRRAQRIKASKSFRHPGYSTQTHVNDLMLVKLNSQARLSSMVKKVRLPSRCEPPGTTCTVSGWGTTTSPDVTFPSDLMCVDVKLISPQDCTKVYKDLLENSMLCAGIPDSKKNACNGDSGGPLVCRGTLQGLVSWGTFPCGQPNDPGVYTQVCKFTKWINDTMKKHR

Chain of Mitogen-activated protein kinase 10 (P53779 whole entry): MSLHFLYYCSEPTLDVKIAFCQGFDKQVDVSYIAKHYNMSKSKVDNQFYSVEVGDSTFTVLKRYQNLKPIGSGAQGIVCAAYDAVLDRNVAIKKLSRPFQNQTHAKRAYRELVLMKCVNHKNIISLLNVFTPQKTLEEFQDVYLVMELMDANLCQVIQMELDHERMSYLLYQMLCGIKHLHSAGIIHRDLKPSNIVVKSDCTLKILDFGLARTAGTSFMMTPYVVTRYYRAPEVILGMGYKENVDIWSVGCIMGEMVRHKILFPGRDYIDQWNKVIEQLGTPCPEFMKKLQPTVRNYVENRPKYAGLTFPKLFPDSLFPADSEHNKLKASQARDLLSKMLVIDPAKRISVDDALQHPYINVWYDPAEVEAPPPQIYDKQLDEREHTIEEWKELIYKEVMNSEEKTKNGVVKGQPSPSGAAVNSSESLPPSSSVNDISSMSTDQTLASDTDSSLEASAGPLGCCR
T1 sequence (Q92731 whole entry): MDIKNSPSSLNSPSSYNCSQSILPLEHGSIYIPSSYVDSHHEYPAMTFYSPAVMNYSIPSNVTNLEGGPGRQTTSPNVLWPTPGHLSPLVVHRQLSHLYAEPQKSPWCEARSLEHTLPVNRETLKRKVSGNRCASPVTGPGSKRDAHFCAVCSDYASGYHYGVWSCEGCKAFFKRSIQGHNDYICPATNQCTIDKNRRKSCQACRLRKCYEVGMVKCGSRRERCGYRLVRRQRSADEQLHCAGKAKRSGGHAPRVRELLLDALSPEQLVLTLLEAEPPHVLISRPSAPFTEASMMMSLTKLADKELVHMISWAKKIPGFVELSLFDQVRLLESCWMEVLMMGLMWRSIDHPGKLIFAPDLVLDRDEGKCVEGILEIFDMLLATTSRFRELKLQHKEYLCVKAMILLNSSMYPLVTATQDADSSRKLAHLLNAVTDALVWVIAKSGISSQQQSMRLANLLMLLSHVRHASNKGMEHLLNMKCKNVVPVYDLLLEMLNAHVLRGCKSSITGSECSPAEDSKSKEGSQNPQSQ
Chain of E3 ubiquitin-protein ligase Mdm2 (Q00987 whole entry): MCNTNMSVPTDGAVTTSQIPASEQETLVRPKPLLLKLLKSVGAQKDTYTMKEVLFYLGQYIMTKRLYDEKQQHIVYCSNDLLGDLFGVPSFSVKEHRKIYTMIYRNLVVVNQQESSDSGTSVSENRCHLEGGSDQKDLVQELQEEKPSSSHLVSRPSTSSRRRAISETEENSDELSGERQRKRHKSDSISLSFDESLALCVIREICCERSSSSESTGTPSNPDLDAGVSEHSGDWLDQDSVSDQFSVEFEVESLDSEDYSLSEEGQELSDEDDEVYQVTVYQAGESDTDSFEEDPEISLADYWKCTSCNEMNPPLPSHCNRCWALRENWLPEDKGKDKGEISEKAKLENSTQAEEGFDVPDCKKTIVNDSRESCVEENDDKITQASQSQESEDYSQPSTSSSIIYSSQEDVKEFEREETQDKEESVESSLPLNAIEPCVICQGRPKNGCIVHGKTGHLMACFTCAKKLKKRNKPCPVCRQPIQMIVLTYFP

Which IC50 (Estrogen receptor beta [1]) does the source give for `Cc1ccc(NC(=O)COc2ccc(-n3cnnn3)cc2)cc1C` here?
Its IC50 is > 50 µM (not active).

And the IC50 (Estrogen receptor beta [2])?
The IC50 was < 0.023 µM (not active).

Which EC50 [3] does the source give for `CN(C)c1n/c(=N/Cc2ccco2)ss1` here?
The EC50 was 0.26 µM (active).

And the CC50 (Vero)?
Its CC50 is 23.8 µM (active).

Which AC50 [4] does the source give for `COc1ccccc1C#Cc1ccc([C@H]2[C@@H](C#N)N(C(=O)C3CCC3)[C@@H]2CO)cc1` here?
The AC50 was 4.98 µM (active).

And the AC50 [5]?
Its AC50 is > 39 µM (inactive).

For `CCOc1cc(C2NC(=O)NC(C)=C2C(=O)OCc2ccccc2)ccc1O` (stereo not drawn), which IC50 [6] is on record?
Its IC50 is 34.6 µM (not active).

With `CCc1oc2ccccc2c1C(=O)c1cc(I)c(O)c(I)c1` [BENZIODARONE] as the compound, how does the IC50 [7] read?
Its IC50 is > 10 µM (inactive).

What about the IC50 [8] of the same compound?
Its IC50 is 0.001 µM (active).

And the IC50 [9]?
Its IC50 is 0.003 µM (active).

What about the IC50 [10] of the same compound?
The IC50 was 0.003 µM (active).

What about the IC50 [11] of the same compound?
The IC50 was 0.001 µM (active).

What about the IC50 [12] of the same compound?
Its IC50 is 0.003 µM (active).

What about the IC50 [13] of the same compound?
The IC50 was > 10 µM (inactive).

What about the IC50 [14] of the same compound?
Its IC50 is 0.001 µM (active).

And the IC50 [15]?
The IC50 was 0.003 µM (active).

And the IC50 [16]?
The IC50 was 0.001 µM (active).

For `O=C1C=CCC(/C=C/c2ccccc2)O1` (stereo not drawn), which IC50 [17] is on record?
The IC50 was 1.31 µM (active).

What about the EC50 [18] of the same compound?
Its EC50 is > 120 µM (not active).

And the EC50 [19]?
The EC50 was > 120 µM (not active).

What about the EC50 (H4) of the same compound?
Its EC50 is 98.3 µM (active).

What about the IC50 [20] of the same compound?
Its IC50 is > 80 µM (inactive).

For `Nc1nc(SCC(=O)N2CCCC2)nc(O)c1NC(=O)c1cccs1`, which IC50 [21] is on record?
Its IC50 is > 109 µM (inactive).

And the IC50 [22]?
Its IC50 is > 83.2 µM (inactive).

Which EC50 (Kallikrein-7) does the source give for `Cc1nn(CCc2nnn[nH]2)c2nc(C(F)(F)F)cc(C(F)(F)F)c12` here?
The EC50 was > 69.5 µM (inactive).

For `O=c1[nH]c2ccccc2c2nc3ccccn3c12`, which IC50 [6] is on record?
The IC50 was 13.8 µM (not active).

For `COC(=O)CCCC(=O)NC(C)c1cnn(-c2ccccc2C)c1C` (stereo not drawn), which IC50 [21] is on record?
Its IC50 is > 109 µM (inactive).

What about the IC50 [22] of the same compound?
The IC50 was > 83.3 µM (inactive).

Reference: ChEMBL document CHEMBL1201862, “PubChem BioAssay data set” (2004)
